# Test results: patent publication US20250115595A1, “INHIBITORS OF HYPOXIA-INDUCIBLE FACTORS” (The Johns Hopkins University, priority 2021, published 2025)
# Columns and labels:
# C57BL/6 mice = assay: Safety after systemic (IP) dosing: fundus/angiography, ERG, tissue histology; format: in vivo, mouse
# Experimental: Fundus photos and fluorescein angiographic images of the retina of C57BL/6 mice on day 30 following 5 daily intraperitoneal (IP) injections (day 0 to day 5) with 32-134D at 40 or 80 mg/kg compared to vehicle control (FIG. 17).
# ERG measurements taken in C57BL/6 mice at day 7 (D7) and day 14 (D14) following 5 daily IP injections (day 0 to day 5) with vehicle control (Veh) or 32-134D at 20, 40, or 80 mg/kg/day.
# To survey for possible organ damage following systemic administration, three-month-old mice were treated with the 80 mg/kg/day of 32-134D by IP injection for five consecutive days (days 0-4). On day 30, mice were sacrificed, perfused with PBS, and tissues were harvested and fixed in 4% paraformaldehyde (PFA). Harvested tissues included the brain, heart, muscle, liver, spleen, kidney, stomach, small intestine, and large intestine. Tissues were embedded with paraffin, sectioned at […], and stained with hematoxylin and eosin. Images were taken at 20× magnification.
# Flash scotopic ERGs: All procedures were performed under dim red light. Mice were dark adapted overnight, anesthetized with ketamine (50 mg/kg) and xylazine (5 mg/kg) and pupils were dilated with a topical drop of tropicamide (1%). Scotopic ERG responses were measured using the Celeris ERG stimulator (Diagnosys, Lowell, MA) at flash intensities of 0.025, 0.25, 2.5, 7.96, and 79.06 cd/s/m2. ERGs were measured simultaneously from both eyes with a ground electrode placed into the forehead between the eyes and a reference electrode into the hip.
# Fluorescein angiography in mice: To evaluate the effect of 32-134D on the retinal vasculature and vascular permeability, experimental animals were treated with 5 consecutive daily IP injections with 32-134D at 40 or 80 mg/kg. On day 30, mice were anesthetized using intramuscular injection with ketamine (50 mg/kg) and xylazine (5 mg/kg). Pupils were then dilated using 1% tropicamide eye drops and mice were placed on the imaging platform of the Phoenix Micron III retinal imaging microscope (Phoenix Research Laboratories, Pleasanton, CA). Goniovisc 2.5% (hypromellose; Sigma Pharmaceuticals, LLC, Monticello, IA) was applied liberally to keep the eye moist during imaging studies. Fundus photos were taken before administering 10 to 20 μl of 10% fluorescein sodium (Apollo Ophthalmics, Newport Beach, CA) IP injection. Rapid acquisition of fluorescein angiographic images was then performed for 5 minutes. Fluorescein leakage manifests as indistinct vascular borders progressing to diffusely hazy fluorescence. Fluorescein leakage was compared between different groups by quantifying the fluorescence intensities collected after 1, 2, and 3 minutes following fluorescein injection using ImageJ software (National Institutes of Health, Bethesda, MD).
# HIF-1α = target: T1, HIF-1α (Homo sapiens, UniProt Q16665); assay: Immunoblot of HIF-1α accumulation in hypoxic MIO-M1 cells; format: cell-based
# T1 construct: endogenous in cells; host or cells: MIO-M1 (immortalized human Müller glial cell line), hypoxia
# Experimental: (§1) It has previously been reported that the cells in the inner nuclear layer of the retina that express VEGF in response to hypoxia/ischemia are Müller glial cells (X. Xin et al., Proc Natl Acad Sci USA 110, E3425-3434 (2013)). […] The effects of 32-134D on HIF-1α accumulation persisted up to 16 hours after treatment of cultured cells (FIG. 27B).
# Pharmacokinetic analysis of 32-134D in the neurosensory retina following intraocular administration was determined by liquid chromatography and tandem mass spectrometry (LC-MS/MS) to quantify the concentration of 32-134D in retinal tissue over 14 days following a single 70-ng intraocular injection of 32-134D (see Methods of all parameters). […] The total exposure (area under the curve or AUClast) was 72.3 nmol*day/g.
# Cells culture and reagents: MIO-M1 cells were a gift from Dr. Astrid Limb (University College London, Institute of Ophthalmology, London, United Kingdom). MIO-M1 and HUVEC cells were cultured in DMEM with 10% (vol/vol) FBS (Quality Biological) and 1% penicillin/streptomycin (Cellgro). Hypoxia chambers were used to expose cells. Evans Blue (E2129) was purchased from Sigma-Aldrich.
# Immunoblot assays and ELISAs: Cell, neurosensory retina, and D120 retinal organoid lysates were subjected to 4-15% gradient SDS/PAGE (Invitrogen). […]
# VEGF and ANGPTL4 mRNA = assay: mRNA expression in hypoxic MIO-M1 cells; format: cell-based, human; conditions: hypoxia, 10 μM
# Experimental: as §1
# Reverse transcription and quantitative real-time PCR: Total RNA was isolated from cultured cells or retinas with PureLink™ RNA Mini Kit (Invitrogen #12183025), and cDNA was prepared with MuLV Reverse Transcriptase (Applied Biosystems). Quantitative real-time PCR was performed with Power SYBR Green PCR Master Mix (Applied Biosystems) and MyiQ Real-Time PCR Detection System (Bio-Rad). Normalization was done using cyclophilin A for mouse tissue and human cell lines.
# Hepa1-6 mouse HCC cells = assay: RT-qPCR of hypoxia-induced mRNAs in Hepa1-6 cells; format: cell-based
# Experimental: Effects of 32-134D on Hepa1-6 mouse HCC cells and tumors. […] Thus, 32-134D inhibits the ability of hypoxic HCC cells to increase O2 delivery by stimulating angiogenesis (Angpt14, Pgf, Vegfa) or […] anaerobic metabolism by increasing glycolytic flux (Glut1, Pgk1, Ldha).
# Human Hep3B and mouse Hepa1-6 cells were purchased from ATCC and grown in high-glucose (4.5 mg/ml) Dulbecco's modified Eagle's medium supplemented with 10% (vol/vol) fetal bovine serum and […] at 37° C. in a 5% CO2/95% air incubator (20% O2). Human cell line identity was authenticated by analysis of short tandem repeats, and all cell lines were maintained mycoplasma free, using PCR-based assays conducted at the Johns Hopkins University Genetic Resources Core Facility. Cells were subjected to hypoxia in a controlled atmosphere chamber (PLAS Labs) with ambient gas mixture containing 1% O2 and 5% CO2.
# RNA was extracted using TRIzol Reagent (ThermoFisher). Quantitative Real-time PCR was conducted using SYBR Green PCR Master Mix (BioRad) and reactions were run using the BioRad thermal cycler (BioRad). The mRNA expression of target genes was normalized to the expression of 18S rRNA and the fold change (FC) was calculated based on the threshold cycle (Ct) as […]
# [1] = 5 daily IP injections 20, 40 or 80 mg/kg/day, D7 and D14
# T1 sequence (Q16665 whole entry): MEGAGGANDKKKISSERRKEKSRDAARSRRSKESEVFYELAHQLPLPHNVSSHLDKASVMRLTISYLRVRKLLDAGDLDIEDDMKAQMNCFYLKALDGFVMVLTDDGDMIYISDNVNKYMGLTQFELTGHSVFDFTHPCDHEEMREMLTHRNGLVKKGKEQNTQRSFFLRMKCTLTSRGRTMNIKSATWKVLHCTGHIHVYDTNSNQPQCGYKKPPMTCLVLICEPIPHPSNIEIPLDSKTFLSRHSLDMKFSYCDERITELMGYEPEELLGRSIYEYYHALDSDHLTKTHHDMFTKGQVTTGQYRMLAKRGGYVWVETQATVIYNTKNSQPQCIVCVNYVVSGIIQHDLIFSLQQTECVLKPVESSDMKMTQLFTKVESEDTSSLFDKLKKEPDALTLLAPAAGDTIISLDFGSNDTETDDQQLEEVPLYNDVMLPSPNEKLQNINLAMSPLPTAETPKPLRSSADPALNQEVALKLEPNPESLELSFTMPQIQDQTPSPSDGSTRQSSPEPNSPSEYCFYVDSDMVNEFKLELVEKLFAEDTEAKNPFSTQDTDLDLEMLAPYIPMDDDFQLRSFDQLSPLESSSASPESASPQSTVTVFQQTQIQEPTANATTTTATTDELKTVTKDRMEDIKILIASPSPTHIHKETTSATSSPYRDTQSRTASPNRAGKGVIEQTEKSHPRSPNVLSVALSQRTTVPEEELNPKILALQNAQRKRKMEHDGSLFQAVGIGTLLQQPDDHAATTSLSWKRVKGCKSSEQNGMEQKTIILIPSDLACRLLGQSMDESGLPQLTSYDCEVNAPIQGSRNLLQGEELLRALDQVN
smiles,measurement,setting,value
"Brc1ccc2c(-c3csc(-c4c[nH]c5c(Br)cccc45)n3)c[nH]c2c1 [Compound 32-134D, 4-(6-bromo-1H-indol-3-yl)-2-(7-bromo-1H-indol-3-yl)thiazole]","tissue histology (brain, heart, muscle, liver, spleen, kidney, stomach, intestines)","C57BL/6 mice; 80 mg/kg/day IP for five days, day 30",no evidence of toxicity
same,ERG a-wave versus vehicle,C57BL/6 mice; [1],no statistically significant difference
same,ERG b-wave versus vehicle,C57BL/6 mice; [1],no statistically significant difference
same,fundus photos and fluorescein angiography of retina,"C57BL/6 mice; 5 daily IP injections 40 or 80 mg/kg, day 30",intact retinal vasculature and absence of capillary leakage
same,persistence of effect on HIF-1α accumulation after treatment,HIF-1α; 10 μM,up to 16 hours
same,IC50,"HIF-1α; hypoxia 4 hours, quantitation of immunoblots, read-out: IC50 of HIF-1α protein accumulation",3.5 µM
same,mRNA expression of VEGF and ANGPTL4,VEGF and ANGPTL4 mRNA,potent inhibition
same,hypoxia induction of B7h4 and Tim3 mRNAs,"Hepa1-6 mouse HCC cells; Hepa1-6 cells, 5 μM",hypoxia-induced in vehicle but not in 32-134D-treated cells
same,hypoxia induction of Pdl1 mRNA,"Hepa1-6 mouse HCC cells; Hepa1-6 cells, 5 μM",hypoxia-induced in vehicle-treated but not in 32-134D-treated cells
same,hypoxia-induced expression of Glut1 and Ldha,"Hepa1-6 mouse HCC cells; Hepa1-6 cells, 5 μM",blocked
same,"decreased Cxcl1, Il6 and Il10 mRNA levels",Hepa1-6 mouse HCC cells; cultured Hepa1-6 cells,not in cultured Hepa1-6 cells exposed to 32-134D
same,hypoxia-induced IL22 mRNA expression,Hepa1-6 mouse HCC cells; cultured Hepa1-6 cells,inhibited
same,"hypoxia-induced expression of mRNA encoding Angpt14, Pgf, Vegfa and Pgk1",Hepa1-6 mouse HCC cells; hypoxic Hepa1-6 cells,significant dose-dependent inhibition
